Assay [1] relates to TMEM16A. In words: TMEM16A mRNA expression by RT-PCR in HBE cells from control or CF patients. The settings on record: 100 ng/ml. It is filed as cell-based, human. How it is done:
Reverse transcriptase-polymerase chain reaction (RT-PCR). Total RNA extraction and synthesis and PCR of cDNA were done on total lung cells as described (21, 22). Amplification efficiencies were validated and normalized against Gapdh. The thermal profile for SYBR Green real-time PCR was at 95° C. for 3 min, followed by 40 cycles of denaturation for 30 s at 95° C. and an annealing/extension step of 30 s at 60° C. Each data point was examined for integrity by analysis of the amplification plot. The mRNA-normalized data were expressed as relative mRNA in treated cells compared to that of unstimulated cells.
Pharmacological correction of the ion transport defect by targeting of mutant CFTR, or alternative ion channels that may compensate for CFTR dysfunction, has long been considered as an attractive approach to a causal therapy of CF (37). […] Activation of TMEM16A with pharmacological agents could circumvent the primary defect in CF, irrespective of CFTR genotype (40). […] Based upon these findings, whether TMEM16A expression was induced by Tα1 on HBE cells from control or CF patients has been evaluated. To this purpose cells have been exposed to 100 ng/ml of Tα1 up to 24 hours and assessed TMEM16A mRNA expression by RT-PCR on total RNA from cells.

For assay [2], the target named is T1, CFTR (Homo sapiens, UniProt P13569, DEL508-508).
T1 construct: endogenous in cells; host or cells: primary HBE cells from lung transplants of CF patients
T1 sequence (P13569 with tags, fused parts or gaps DEL508-508): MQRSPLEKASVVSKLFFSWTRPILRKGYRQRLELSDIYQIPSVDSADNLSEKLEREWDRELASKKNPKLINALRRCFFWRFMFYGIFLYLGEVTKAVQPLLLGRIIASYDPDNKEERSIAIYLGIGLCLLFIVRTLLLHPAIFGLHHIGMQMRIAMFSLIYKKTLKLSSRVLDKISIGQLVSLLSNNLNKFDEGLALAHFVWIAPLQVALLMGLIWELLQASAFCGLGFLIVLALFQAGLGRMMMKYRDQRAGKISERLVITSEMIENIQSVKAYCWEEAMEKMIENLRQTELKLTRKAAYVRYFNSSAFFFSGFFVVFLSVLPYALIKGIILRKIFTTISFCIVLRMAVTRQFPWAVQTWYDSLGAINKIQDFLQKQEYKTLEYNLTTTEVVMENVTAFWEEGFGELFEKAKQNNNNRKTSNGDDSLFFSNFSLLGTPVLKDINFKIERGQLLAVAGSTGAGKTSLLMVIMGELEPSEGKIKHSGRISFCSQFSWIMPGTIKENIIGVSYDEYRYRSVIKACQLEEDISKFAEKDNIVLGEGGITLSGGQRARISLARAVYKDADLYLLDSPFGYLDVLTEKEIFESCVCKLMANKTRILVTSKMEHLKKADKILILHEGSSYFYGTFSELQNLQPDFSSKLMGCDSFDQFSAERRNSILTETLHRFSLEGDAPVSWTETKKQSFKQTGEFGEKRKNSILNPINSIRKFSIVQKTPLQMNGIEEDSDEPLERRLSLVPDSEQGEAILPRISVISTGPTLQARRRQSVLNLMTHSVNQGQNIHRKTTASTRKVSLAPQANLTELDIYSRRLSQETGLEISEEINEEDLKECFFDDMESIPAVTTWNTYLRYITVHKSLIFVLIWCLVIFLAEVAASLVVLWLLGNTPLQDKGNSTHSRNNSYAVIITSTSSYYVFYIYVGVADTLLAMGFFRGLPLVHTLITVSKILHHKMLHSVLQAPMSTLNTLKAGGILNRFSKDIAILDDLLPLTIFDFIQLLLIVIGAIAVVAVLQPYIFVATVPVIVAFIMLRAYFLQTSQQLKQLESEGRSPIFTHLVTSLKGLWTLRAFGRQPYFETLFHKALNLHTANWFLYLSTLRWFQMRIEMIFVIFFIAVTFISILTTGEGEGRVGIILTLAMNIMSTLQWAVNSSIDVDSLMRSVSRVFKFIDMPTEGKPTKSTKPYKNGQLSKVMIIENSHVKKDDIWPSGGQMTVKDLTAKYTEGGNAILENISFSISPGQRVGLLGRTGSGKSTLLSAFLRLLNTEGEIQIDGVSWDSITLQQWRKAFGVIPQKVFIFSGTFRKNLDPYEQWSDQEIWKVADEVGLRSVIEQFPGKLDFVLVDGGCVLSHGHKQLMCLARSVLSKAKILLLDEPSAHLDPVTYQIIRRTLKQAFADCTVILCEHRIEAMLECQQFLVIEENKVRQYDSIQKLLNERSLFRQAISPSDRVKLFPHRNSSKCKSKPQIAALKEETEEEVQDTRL
The assay is described as follows: CFTR protein expression (band C) in HBE cells from CF patients. It counts as cell-based. The settings on record: 100 ng/ml Tα1 for 24 hours, cells from 5 CF patients. Here is the method:
Cells. Cell Lines and Cell Culture—Human bronchial epithelial (HBE) cells, homozygous for the […] mutation and its isogenic wild-type were obtained from lung transplants (CF patients) or lung resections (non-CF patients) (kindly provided by L J Galietta within the Italian Cystic Fibrosis Foundation). Cells were maintained at 37° C. in a humidified incubator in an atmosphere containing 5% CO2, and the experiments were done 5 days after plating (21, 22). Stable lentiviral-based transduction of the parental CFBE41o− cells (ΔF508/ΔF508), originally immortalized and characterized by Dr. D. Gruenert and co-workers (32) with either WT-CFTR or ΔF508-CFTR, was performed by Tranzyme, Inc. (Birmingham, AL). […]
CFTR Immunoblot Analysis. […] LiteAblotPlus chemiluminescence substrate (Euroclone S.p.A.), using ChemiDoc™ XRS+ Imagig system (Bio-Rad Laboratories) and blot quantification was obtained by densitometry image analysis using Image Lab 3.1.1 software (Bio-Rad).
The SV40 transformed CF airway epithelial cell line (CFBE41o−), homozygous for the ΔF508-CFTR mutation, was used (32). […] CFTR bands were quantified by densitometry and expressed as the C/B ratio. […]

Results on one substance are retold here after US12083165B2, “Thymosin alpha 1 for use in treatment of cystic fibrosis” (SciClone Pharmaceuticals International (SG) PTE. LTD., priority 2015, dated 2024).

Turning to “Ac-Ser-Asp-Ala-Ala-Val-Asp-Thr-Ser-Ser-Glu-Ile-Thr-Thr-Lys-Asp-Leu-Lys-Glu-Lys-Lys-Glu-Val-Val-Glu-Glu-Ala-Glu-Asn-O (Ac-SDAAVDTSSEITTKDLKEKKEVVEEAEN-OH; not fully specified; printed as Ac-Ser-Asp-Ala-Ala-Val-Asp-Thr-Ser-Ser-Glu-Ile-Thr-Thr-Lys-Asp-Leu-Lys-Glu-Lys-Lys-Glu-Val-Val-Glu-Glu-Ala-Glu-Asn-O; listed as Homo sapiens) [Tα1, naturally occurring polypeptide of 28 amino acid; supplied as purified sterile, lyophilized, acetylated polypeptide]”, the TMEM16A expression entry in assay [1] (CF HBE cells, after 4 hours) is reported as “markedly increased”; in assay [1] (CF HBE cells, at 24 hours), “remains elevated”; in assay [1] (control HBE cells, after 4 hours) it was “markedly increased”; in assay [1] (control HBE cells, at 24 hours) it was “returned to baseline levels”. Also, the “CF patients whose HBE cells showed increased expression of CFTR (band C)” value in assay [2] is recorded as 3 patients.
